Source: patent US20060269924A1, “Modulation of telomere-initiated cell signaling” (TRUSTEES OF BOSTON UNIVERSITY, priority 2003, published 2006)
{P} = phosphate

What was measured:
[1] = tested on: S91 mouse melanoma cells; assay: Melanin content of S91 melanoma cells; format: cell-based; conditions: 100 μM
Description: Cultures of S91 mouse melanoma cells (100,000 cells/38 cm^2) were treated with 100 μM pTpT or phosphorothioate pTpT (pTspT) (FIG. 4) or 40 μM 11mer-1 or the phosphorothioate 11mer-1 (11mer-1-S) (FIG. 5) for 6 days and were then collected, counted and assayed for melanin content.
(§1) Duplicate cultures of S91 cells (100,000 cells/39 cm^2) were either sham-irradiated or irradiated with 5 mJ/cm^2 solar-simulated light from a 1 kW xenon arc solar-simulator (XMN 1000-21, Optical Radiation, Azuza, Calif.) metered at 285±5 nm using a research radiometer (model IL1700A, International Light, Newburyport, Mass.). Two sham-irradiated plates were then supplemented with 100 μM pTspT and two irradiated cultures were similarly treated with pTspT. After one week, cells were collected, counted and analyzed for melanin content by dissolving the cell pellets in 1 N NaOH and measuring the optical density at 475 nm. […] However, this response was blocked by the addition of pTspT (FIG. 6). In addition, the constitutive pigmentation of these cells was reduced by the pTspT in the sham-irradiated cultures, similar to the data presented in FIGS. 4 and 5.

[2] = tested on: human fibrosarcoma HT-1080 cells; assay: SA-β-Gal staining, HT-1080 cells; format: cell-based; conditions: HT-1080 cells, 40 μM, 4 days
Description: (§2) FIG. 13a: Exposure to T-oligo increases SA-β-Gal activity. HT-1080 cells were treated for 4 days with diluent alone or 40 μM T-oligo or the complementary control oligo, then stained and assayed for SA-β-Gal activity. FIG. 13b: Quantitative analysis of SA-β-Gal positive cells. Cells expressing SA-β-Gal activity were counted and presented as percentage of total cells in the cultures. Averages and standard deviations were calculated from 3 representative fields from each of 3 independent experiments. FIG. 13c: Effect of T-oligo on cell proliferation. Cells were treated for 4 days as in FIG. 12 and assayed for DNA synthesis by BrdU incorporation. FIG. 13d: Quantitative analysis of BrdU incorporation. Dark black nuclei indicate BrdU incorporated into nuclear DNA. BrdU positive cells were calculated and presented as percentage of total cells in the cultures. Averages and standard deviations were calculated from 3 representative fields from each of 3 independent experiments. FIG. 13e: Effect of T-oligo on pRb phosphorylation. Cells were treated as in FIG. 13a and were then collected for protein analysis by western blot using 30 μg total protein and probed for pRb-ser780*, ser795* and ser807/811* (pRb phosphorylated at serine 780, serine 795 and serine 807/811 respectively). Lanes D, T and C contain protein samples from cells treated with diluent, T-oligo and complementary oligo respectively. β-actin was used as a loading control.
Parallel cultures were treated as described in FIG. 13a. Cells were then washed once with PBS and refed with complete medium without additional treatment for 24 hours or 48 hours. FIG. 14a: SA-β-Gal activity. Cells were stained for SA-β-Gal activity. […]
TRF2^DN has been reported to induce a senescent phenotype in human fibrosarcoma HT-1080 cells. To determine whether exposure to the telomere 3′ overhang DNA (T-oligo) also induces senescence in these cells, HT-1080 cells (American Type Culture Collection; Manassas, Va.) were treated with either diluent alone, T-oligo or the complementary oligo as a control, for 4 days and then assessed for SA-β-Gal activity. […]

[3] = tested on: HT-1080 fibrosarcoma cells; assay: BrdU incorporation assay, HT-1080 cells; format: cell-based, human; conditions: HT-1080 cells, 40 μM, 4 days
Description: as §2
Parallel cultures were treated as described in FIG. 13a. Cells were then washed once with PBS and refed with complete medium without additional treatment for 24 hours or 48 hours. FIG. 14a: SA-β-Gal activity. […]
HT-1080 fibrosarcoma cells cultured on Permanox chamber slides were treated with diluent, 40 μM T-oligo or 40 μM complementary oligo for 4 days and DNA synthesis was assayed using 5-bromo-2′-deoxy-uridine (BrdU) Labeling and Detection Kit II (Roche Molecular Biochemicals, Indianapolis, Ind.) following the protocol supplied by the manufacturer. […] After incubation with anti-mouse-Ig-alkaline phosphatase, the color reaction was detected by light microscopy. […]

[4] = tested on: HT-1080 human fibrosarcoma cells; assay: Clonogenic assay; format: cell-based; conditions: HT-1080, 40 μM for one week, then replated 2 weeks without treatment
Description: Cells were treated with diluent, 40 μM T-oligo or complementary oligo for one week, and then assayed. FIG. 15a: Appearance of stained dishes. FIG. 15b: Quantification of clonogenic capacity. Colonies of triplicate cultures were counted and plotted as percentage of diluent treated control.
Human fibrosarcoma cells were treated with diluent alone, 40 μM T-oligo or 40 μM complementary oligo for one week and were then trypsinized and counted. 300 cells were seeded into 60 mm culture dishes in triplicate and then incubated in complete medium for 2 weeks with medium changed twice per week. Subsequently, the cells were fixed for 5 min in 100% methanol. The methanol was then removed and the culture dishes were rinsed briefly with water. The colonies were stained for 10 min in 4% (w/v) methylene blue solution in PBS, washed once again with water, and then counted.
To determine the long-term effect of T-oligo treatment on cell growth, HT-1080 human fibrosarcoma cells were treated with either diluent alone, 40 μM T-oligo or 40 μM complementary control oligo for one week and then an equal number of cells were replated and medium was changed twice per week for 2 weeks with no further treatment, and then stained with methylene blue (FIG. 15a).

[5] = tested on: HT-1080 fibrosarcoma cells; assay: Telomere length (mean TRF length) assay; format: cell-based, human; conditions: HT-1080 cells, 40 μM, 4 days
Description: Cells were treated as described in FIG. 13a. Lanes 1, 2, 3 contain genomic DNA from cells treated with diluent (D), T-oligo (T), or complementary oligo (C). Lanes 4 and 5 contain high (H) molecular and low (L) molecular weight standard telomeric DNA.
HT-1080 fibrosarcoma cells were treated with diluent, 40 μM T-oligo or 40 μM complementary oligo for 4 days and then the genomic DNA was isolated using the DNeasy Tissue Kit (Qiagen, Valencia, Calif.). Telomere length was determined using the Telo TTAGGG Telomere Length Assay (Roche Molecular Biochemicals, Indianapolis, Ind.) following the protocol supplied by the manufacturer. […] Terminal restriction fragments (TRF) were detected by chemiluminescence. The mean TRF length was calculated by scanning the exposed X-ray film with a densitometer and calculated as previously described (Harley et al. [1990] Telomeres shorten during ageing of human fibroblasts. Nature 345, 458-460).
To determine the affect of T-oligos on the mean telomere length (MTL) in HT-1080 cells, cells were analyzed after treatment with T-oligo for 4 days which corresponded to the time that the senescent phenotype was readily observed. […] The less than 100 bp difference in calculated MTL is within the range of experimental variation and is not significant.

[6] = tested on: p95 phosphorylated at serine 343; assay: p95 serine 343 phosphorylation after tankyrase siRNA, western blotting and densitometry; format: cell-based, human; conditions: 24 hours
Description: Paired cultures of human fibroblasts were treated once with tankyrase siRNA, with a non-specific siRNA (control) or were mock transfected as a second control. […] After an additional 24 hours, cells were collected and processed for western blotting using an antibody specific for p95 phosphorylated at serine 343, indicating p95 modification by activated ATM kinase. The film was then subjected to densitometry and the diluent control for each group of cells was set at 1.0 in arbitrary units (FIG. 19). As expected, in cells with normal tankyrase levels the T-oligo treated cells had twice the amount of phosphorylated p95, while the control oligo-treated or diluent-treated cells had only a 30-40% increase.

[7] = tested on: p53 serine 15 phosphorylation and p21 induction in response to TRF2^DN; assay: PARP inhibitors and response to TRF2^DN, western analysis; format: cell-based; conditions: neonatal fibroblasts, AdTRF2DN, 3 days; 3AB 2.5 mM or IQ 100 μM
Description: The graphs show densitometric readings of the western blots, with diluent control set at 100%. FIG. 9f: Lane 1, diluent, GFP; lane 2, diluent TRF2DN; lane 3, 3AB, GFP; lane 4, 3AB, TRF2DN; lane 5, IQ, GFP; lane 6, IQ, TRF2DN.
Neonatal fibroblasts were treated with AdTRF2DN or AdGFP as a negative control. Two hours before infection, cells were treated with either diluent 3AB (2.5 mM) or IQ (100 μM). After 3 days cells were collected for western analysis for the c-myc-tagged TRF2DN (to confirm infection), p53 serine 15 phosphorylation and p21 induction.

[8] = tested on: T-oligo-induced total p53, p21, p53 serine 15 phosphorylation; assay: PARP inhibitor pretreatment and T-oligo responses, western blot; format: cell-based; conditions: fibroblasts, 40 μM T-oligo, 48 hours; 3AB 2.5 mM or IQ 100 μM
Description: To investigate the role of PARPs in responses to T-oligo, fibroblasts were pretreated with one of two different PARP inhibitors, 3-aminobenzamide (3AB, 2.5 mM) or […] (IQ, 100 μM) for 2 hours before addition of 40 μM T-oligo or an equal amount of diluent as a control. An additional dose of each inhibitor was given to the cells 4 hours after addition of the T-oligo or diluent (D). Fibroblasts were treated with 3AB and T-oligo, then collected 48 hours later for western blot. T-oligo-induced upregulation of total p53, p21, phosphorylation of p53 serine 15 (indicating p53 activation) were all reduced in the presence of 3AB (FIG. 17A).

[9] = tested on: S91 cells; assay: UV-induced melanogenesis in S91 cells; format: cell-based, mouse; conditions: 5 mJ/cm^2 solar-simulated light, 100 μM, one week
Description: as §1

Compound: pTpT
- melanogenesis (melanin content) ([1]; 6 days): stimulated melanogenesis

Compound: pCTAACCCTAAC (DNA, 5' {P}, backbone and methylation of C not given here; listed as Homo sapiens) [Oligonucleotide 11mer-2, reference compound]
- SA-β-Gal positive cells [2]: 6±3%
- BrdU incorporation (BrdU positive cells) [3]: 85±10%
- clonogenic capacity [4]: 90.5±9.4 % of diluent treated control
- mean telomere length (MTL) [5]: 5.51 kb
- increase in phosphorylated p95 ([6]; human fibroblasts with normal tankyrase levels): 30-40%
- level of p95 phosphorylation (densitometry, diluent control set at 1.0) ([6]; tankyrase knockdown group (tankyrase siRNA)): 1.3 arbitrary units

Compound: NC(=O)c1cccc(N)c1 [Oligonucleotide 3AB, 3-aminobenzamide]
- p21 induction in response to TRF2^DN [7]: reduced
- p53 phosphorylation in response to TRF2^DN [7]: reduced
- T-oligo-induced phosphorylation of p53 serine 15 [8]: reduced
- T-oligo-induced upregulation of p21 [8]: reduced
- T-oligo-induced upregulation of total p53 [8]: reduced

Compound: pTspT
- UV-induced doubling of melanin content [9]: blocked
- constitutive pigmentation ([1]; 6 days): reduced the constitutive pigmentation
- melanogenesis (melanin content) ([1]; 6 days): did not
- constitutive pigmentation ([1]; sham-irradiated, one week): reduced
